Like-named read-outs stand apart in the source and are kept apart here.
What was measured:
log P (octanol/water) = type: physicochemical
[1] = test system: cytochrom P450 dependent liver monooxygenases
[2] = test system: human solid tumors implanted into nude mice; conditions: cited from earlier work
[3] = solubility in physiological saline (pH 7.4); type: physicochemical
tumor cells = test: inhibition of growth of tumor cells; type: cell-based; conditions: relative to parent compounds
[4] = nude mice, comparable dosage, cf. PCT/EP00/03210

Row | Compound | log P (octanol/water) (log P (octanol/water)) | solubility in physiological saline [3] | inhibiting growth of tumor cells, compared with the parent compounds (tumor cells) | further results
1 | Cc1ccc2c(c1)/C(=C1/Nc3ccccc3C1=O)C(=O)N2 [5-methylindirubin] | 1.1 | 0.1 mg/l |  | metabolism (oxidative, liver microsomes) ([1]; liver microsome preparations from cows, pigs, rats and human liver samples): rapidly metabolized; effectiveness on human solid tumors implanted into nude mice [2, 4]: highly effective; toxicity (body weight loss) [2, 4]: without any perceptible toxicity
2 | Cc1cc2c(cc1O)NC(=O)C2=C1Nc2c(O)cccc2C1=O [6,7′-dihydroxy-5-methylindirubin] |  |  | at least as effective | 
3 | Cc1cc2c(cc1O)NC(=O)C2=C1Nc2ccccc2C1=O [6-hydroxy-5-methylindirubin] | 1.6 | up to 240 mg/l | at least as effective | increase of solubility versus parent compound 5-methylindirubin (factor) [3]: more than 2000
4 | O=C1Nc2ccccc2/C1=C1/Nc2ccccc2C1=O [indirubin] |  |  |  | metabolism (oxidative, liver microsomes) [1]: not metabolized to a detectable extent; toxicity (body weight loss) ([2]; mouse, in vivo): remarkably toxic
